Results from patent US10906896B2, “Compositions and methods for inhibiting kinases” (Inhibikase Therapeutics, Inc., priority 2015, dated 2021).

How the values were obtained:
[1] = tested on: Ba/F3 cells harboring BCR-ABL E255K; assay: Ba/F3 proliferation, BCR-ABL E255K; assay type: cell-based; details: 48 hrs, IL-3 withdrawn
[2] = tested on: Ba/F3 cells harboring BCR-ABL E255V; assay: Ba/F3 proliferation, BCR-ABL E255V; assay type: cell-based; details: 48 hrs, IL-3 withdrawn
Experimental: (§1) IL-3 was subsequently withdrawn from these populations.
(§2) Final concentrations of each compound were 10 μM, 1 μM, 100 nM, 10 nM, 1 nM, 0.1 nM, 0 nM (plus a blank-media only).

[3] = tested on: Ba/F3 cells harboring BCR-ABL T315I; assay: Ba/F3 proliferation, BCR-ABL T315I; assay type: cell-based; details: 48 hrs, IL-3 withdrawn
Experimental: as §1, §2

[4] = tested on: untransduced Ba/F3 cells grown in the presence of IL-3; assay: Ba/F3 proliferation, parental cells (Cell Titer Glo); assay type: cell-based; details: 48 hrs, with IL-3
Experimental: as §1, §2

[5] = tested on: Ba/F3 cells harboring BCR-ABL F359V; assay: Ba/F3 proliferation, BCR-ABL F359V; assay type: cell-based; details: 48 hrs, IL-3 withdrawn
BCR-ABL = details: cited from earlier work
[6] = tested on: JCV laboratory strain MAD-1; assay: JCV antiviral potency in Cos 7 cells; assay type: cell-based, JC polyomavirus (JCV)
[7] = tested on: Ba/F3 cells harboring BCR-ABL Y253H; assay: Ba/F3 proliferation, BCR-ABL Y253H; assay type: cell-based; details: 48 hrs, IL-3 withdrawn
Experimental: as §1, §2

c-Abl1 = c-Abl1 (Homo sapiens (Human), UniProt P00519); assay: c-Abl1 IC50 (FAM-labeled peptide kinase assay); assay type: biochemical
Chain of c-Abl1 (P00519 whole entry): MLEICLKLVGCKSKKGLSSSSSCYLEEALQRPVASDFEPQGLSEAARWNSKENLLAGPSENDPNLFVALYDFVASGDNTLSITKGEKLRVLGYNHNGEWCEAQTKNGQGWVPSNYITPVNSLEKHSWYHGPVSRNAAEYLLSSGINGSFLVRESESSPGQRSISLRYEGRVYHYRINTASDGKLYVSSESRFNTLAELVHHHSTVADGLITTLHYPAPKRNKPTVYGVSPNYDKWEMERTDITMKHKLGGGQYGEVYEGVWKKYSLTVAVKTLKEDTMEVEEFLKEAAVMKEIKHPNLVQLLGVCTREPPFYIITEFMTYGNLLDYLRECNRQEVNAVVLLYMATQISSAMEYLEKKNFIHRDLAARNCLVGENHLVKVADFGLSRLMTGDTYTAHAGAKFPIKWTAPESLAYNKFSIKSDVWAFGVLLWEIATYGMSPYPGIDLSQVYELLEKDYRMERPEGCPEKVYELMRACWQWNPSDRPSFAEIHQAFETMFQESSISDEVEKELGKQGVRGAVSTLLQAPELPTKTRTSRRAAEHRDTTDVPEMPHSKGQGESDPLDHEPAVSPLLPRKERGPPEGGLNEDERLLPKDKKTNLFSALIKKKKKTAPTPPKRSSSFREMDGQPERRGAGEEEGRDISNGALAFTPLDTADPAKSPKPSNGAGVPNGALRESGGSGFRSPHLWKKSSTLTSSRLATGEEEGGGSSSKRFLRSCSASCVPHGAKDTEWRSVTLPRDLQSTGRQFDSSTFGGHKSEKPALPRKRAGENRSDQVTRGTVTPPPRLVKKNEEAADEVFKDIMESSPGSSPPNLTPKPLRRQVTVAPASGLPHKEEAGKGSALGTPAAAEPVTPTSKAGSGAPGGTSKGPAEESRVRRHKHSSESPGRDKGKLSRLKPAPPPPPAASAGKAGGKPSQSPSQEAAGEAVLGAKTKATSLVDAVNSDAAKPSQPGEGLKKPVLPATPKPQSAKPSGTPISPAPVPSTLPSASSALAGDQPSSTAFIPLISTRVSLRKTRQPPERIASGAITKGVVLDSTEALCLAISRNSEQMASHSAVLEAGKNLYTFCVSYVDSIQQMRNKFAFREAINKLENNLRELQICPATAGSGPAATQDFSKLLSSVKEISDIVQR

Row | IC50 [1] | IC50 [2] | IC50 [3] | IC50 [5] | IC50 [7] | IC50 (c-Abl1) | Structure (SMILES) | IC50 [4] | potency as an inhibitor of BCR-ABL relative to Gleevec (BCR-ABL) | antiviral activity against JCV [6]
1 | 45.9 nM | 1030 nM | 2790 nM | 203 nM | – | – | Cc1ccc(NC(=O)c2ccc(CN3CCN(C)CC3)cc2)cc1Nc1nccc(-c2cncc(-c3nccs3)c2)n1 [Compound 8270] | 2520 nM | – | –
2 | 390 nM | 997 nM | 2680 nM | 236 nM | – | – | Cc1cc(-c2cncc(-c3ccnc(Nc4cc(NC(=O)c5ccc(CN6CCN(C)CC6)cc5)ccc4C)n3)c2)sn1 [Compound 8190] | 2240 nM | – | –
3 | 90.9 nM | 661 nM | 2590 nM | 46.7 nM | – | – | Cc1ccc(NC(=O)c2ccc(CN3CCN(C)CC3)cc2)cc1Nc1nccc(-c2cncc(-c3ccn(C)n3)c2)n1 [Compound 832] | 2480 nM | – | –
4 | – | – | – | – | – | – | Cc1cn(-c2cc(NC(=O)c3ccc(C)c(Nc4nccc(-c5cccnc5)n4)c3)cc(C(F)(F)F)c2)cn1 [Tasigna, nilotinib] | – | ≤ 20 × | –
5 | 234 nM | 2390 nM | 2770 nM | 251 nM | – | – | Cc1cnc(-c2cncc(-c3ccnc(Nc4cc(NC(=O)c5ccc(CN6CCN(C)CC6)cc5)ccc4C)n3)c2)s1 [Compound 8280] | 2610 nM | – | –
6 | – | – | – | – | – | – | Cc1ccc(NC(=O)c2ccc(CN3CCN(C)CC3)cc2)cc1Nc1nccc(-c2cncc(C3=NN=C(C(=O)Nc4cn[nH]c4)C3)c2)n1 [Compound 118] | – | – | little antiviral activity
7 | 196 nM | 1200 nM | 2910 nM | 135 nM | 2590 nM | – | Cc1cc(NC(=O)C2=NN=C(c3cncc(-c4ccnc(Nc5cc(NC(=O)c6ccc(CN7CCN(C)CC7)cc6)ccc5C)n4)c3)C2)ccn1 [Compound 103] | 2920 nM | – | –
8 | 46.9 nM | 739 nM | 2120 nM | 161 nM | 1430 nM | – | Cc1cc(NC(=O)C2=NN=C(c3cncc(-c4ccnc(Nc5cc(NC(=O)c6ccc(CN7CCN(C)CC7)cc6)ccc5C)n4)c3)C2)[nH]n1 [Compound 113] | 2060 nM | – | –
9 | 204 nM | 2670 nM | 2300 nM | 260 nM | – | – | Cc1ccc(-c2cncc(-c3ccnc(Nc4cc(NC(=O)c5ccc(CN6CCN(C)CC6)cc5)ccc4C)n3)c2)nc1 [Compound 820] | 2480 nM | – | –
10 | – | – | – | – | – | > 1000 nM | Cc1ccc(NC(=O)c2ccc(CN3CCN(C)CC3)cc2)cc1Nc1nccc(-c2cncc(-c3snnc3C)c2)n1 [Compound 8240] | – | – | –
11 | 80.4 nM | 1440 nM | 2480 nM | 375 nM | – | – | Cc1csc(-c2cncc(-c3ccnc(Nc4cc(NC(=O)c5ccc(CN6CCN(C)CC6)cc5)ccc4C)n3)c2)n1 [Compound 8290] | 2580 nM | – | –
